Where two headings read alike, the source gives them in different places.

One test concerns PLC/PRF/5 HCC cells. Nature of the test: Intracellular flow cytometry (AcLys, H3K27Ac). The conditions noted are these: 1 µM or 3 µM, 24 hours (Fig. S1B). In kind it is cell-based. On the procedure: Supplemental Figures and Figure legends
Figure S1. Inhibition of cancer cell growth by the broad-spectrum HDACI resminostat
A. Inhibition of HDAC1 to 11 by resminostat determined by in vitro HDAC activity assays.
IC50 data from three independent experiments are shown as mean ± SD.
B. Intracellular flow cytometry using antibodies targeting acetyl lysine (AcLys) and the H3K27
acetylation mark (H3K27Ac). IgG isotype controls were used for each antibody. PLC/PRF/5
HCC cells were treated with vehicle control ( 0.1 % DMSO), 1 µM or 3 µM resminostat for 24
hours. For AcLys, the geometric mean fluore scence intensities (gMFI) are shown. For
H3K27Ac, the ratios of the gMFIs for H3K27Ac relative to Histone H3 are shown. D ata of
three technical replicates are presented as mean ± SD.
(1 picture or pasted object on this page, not shown here)
(100×, 78440; Thermo Scientific, Massachusetts, US). Following incubation for 1 h at 4°C,
The protein concentration of the
Fisher Scientific, Massachusetts, US ). Equal amounts of protein lysates and a pre-stained
US) and transferred to PVDF membranes. The membranes were probed using the relevant […]
secondary fluorescence labelled antibodies for 45 min in the dark at RT, washed twice in […]
cells were measured using the Miltenyi MACSQuant Analyser 10 (Miltenyi) and analysed with […]
counted in a Neubauer chamber before the required number of platelets was activated by […]
Background: In flow cytometry, cells or beads pass a laser one at a time.

The test system of the next test is HepG2. The test can be described thus: Efficacy screening assay. In kind it is cell-based. As to conditions: Homo sapiens, HepG2, 72 h, HEPG2, liver. The protocol: labelled fluorogenic peptide substrates: fluorogenic peptide from p53 residues 379-382 (RHKK(Ac)AMC) for HDAC1, 2, 3, 6, 10, 11; fluorogenic HDAC Class IIa Substrate (Trifluoro acetyl Lysine, Ac-LGK(TFA)-AMC) for HDAC 4, 5, 7, 9; and fluorogenic peptide from p53 residues 379-382 (RHK(Ac)K(Ac)AMC) for HDAC8. 1 mg/mL BSA and DMSO was added to the assay buffer (50 mM Tris-HCl, pH 8.0; 137 mM NaCl; 2.7 mM KCl; 1 mM MgCl2) prior to use. In a two-step reaction, the substrate with the acetylated lysine side chain was incubated for with a sample containing HDAC activity to p roduce the deacetylated products: 1 h at 30°C for HDAC1, 2, 3 and 6; 30 min at RT for HDAC4, 5, 7 and 9; 2 h at 30°C for HDAC8, 10 and 11. In a second step, the deacetylated products were digested by the addition of developer for 1 h at 30°C to produce the fluorescent signal proportional to the amount of deacetylated substrates and the fluorescence was measured using an Envision plate reader at 355 nm (excitation) and 460 nm (emission). A kinetic measurement was performed for ~1 h with 5 min intervals and d ata from the final time point were analysed. IC50 values and curve fits were obtained using GraphPad Softwar e.
The experiment was performed by Oncolead GmbH & Co. KG (Karlsfeld , Germany), based on a standardized screening procedure . Cell lines were purchased directly from the ATCC, NCI and DSMZ cell line c ollections. Cells used for the study had undergone less than 20 passages. To ensure the absence of potential contamination and wrong assignment, all cell lines were tested using a whole genome assay (Agilent, USA). All cell lines were grown as recommended by the suppliers and with addition of 100 U/mL penicillin G and 100 µg/mL; streptomycin. Cell growth and treatments were performed in Nunclon D 96 -well plates (NUNC, Germany). The optimal seeding density for each cell line was determined to ensure exponential growth for the duration of the experiment. All cells growing without anti-cancer agents were sub-conﬂuent by the end of the treatment, as determined by visual inspection.
After an initial 24 h pre-growth period, the compounds were added. The vehicle concentration […]
was 0.1% DMSO. After incubation at 37°C for 72 h, the culture medium was aspirated, and the cells were precipitated by the addition of 10% trichloroacetic acid (Sigma-Aldrich, Missouri, US). After overnight incubation at 4°C, the plates were washed three times with deionized water. The precipitates were then stained with SRB (0.4% wt/v sulforhodamine B solution in 1% acetic acid, Sigma-Aldrich, Missouri, US). Afterwards, the plates were washed six times with 1% acetic acid to remove unbound stain. After drying the plates at room temperature, the bound SRB was solubilized with 10 mM Tris base and the optical density was measured at 520 nm using a Victor2 plate reader (Perkin Elmer, Germany). Blank OD values were subtracted from mean OD values for each concentration. The nonlinear curve ﬁtting and EC50 calculations were per formed using XLﬁt and algorithm “205” (ID Business […]
For cell-based and other in vitro assays, data are presented as data mean ± SD of at least […]
For the orthotopic mouse model, data are presented as mean + SEM. For statistical analysis, one-way ANOVA and multiple comparison (Dunnett) was performed for compound treatments compared to vehicle control. The adjusted p-values with 95% confidence interval were reported as significant. For comparison of EC50 values in Figure 1F, one-way ANOVA with multiple comparison testing (Tukey) was performed. Multiplicity adjusted p -values for the EC50 with sorafenib versus resminostat for each cell line and comparison between cell lines for sorafenib are presented (95% confidence interval for significance testing). For comparison of EC50 data in Figure 2B, one-way ANOVA with multiple comparison testing (Tukey) was performed. Multiplicity adjusted p-values with 95% confidence interval was applied. For the […]

As to `CN(C)Cc1ccc(S(=O)(=O)n2ccc(/C=C/C(=O)NO)c2)cc1` [resminostat, Resminostat], in the test with PLC/PRF/5 HCC cells, the “acetylation of histone mark H3K27” value is listed as “hyperacetylation” and the “global acetylation level (AcLys)” value was “increase of the global acetylation level in HCC cells in a dose-dependent manner”. Besides, the EC50 (commonly the concentration giving half of the maximal effect) in the test with HepG2 (log of EC50, negative, read-out: log(EC50) (converted)) was 501 nM. The EC50 with HepG2 (read-out: EC50) was 504 nM.

For the origin of these results see PMC8100298, “Histone deacetylase inhibitor resminostat in combination with sorafenib counteracts platelet-mediated pro-tumoral effects in hepatocellular carcinoma” (Scientific Reports, 2021).
